Source: patent US10995101B2, “2-oxo-thiazole derivatives as A2A inhibitors and compounds for use in the treatment of cancers” (iTeos Therapeutics SA, priority 2017, dated 2021)

Experiments:
[1] = target: A2A receptor (Homo sapiens, UniProt P29274); assay: Inhibition of cAMP production in HEK cells; format: cell-based; details: HEK-293 cells with A2A receptor
[2] = in vitro; details: human, Caco-2, pH 7.4
[3] = IC50 (nM) (3 nM NECA as agonist, 0.1% BSA), 3 nM NECA as agonist, 0.1% BSA
[4] = IC50 (nM) (5 μM Adenosine as agonist, 2.0% HSA), 5 μM Adenosine as agonist, 2.0% HSA
[5] = IC50 (nM) (5 nM NECA as agonist, 2% HSA), 5 nM NECA as agonist, 2% HSA

A2A receptor, sequence (P29274 whole entry): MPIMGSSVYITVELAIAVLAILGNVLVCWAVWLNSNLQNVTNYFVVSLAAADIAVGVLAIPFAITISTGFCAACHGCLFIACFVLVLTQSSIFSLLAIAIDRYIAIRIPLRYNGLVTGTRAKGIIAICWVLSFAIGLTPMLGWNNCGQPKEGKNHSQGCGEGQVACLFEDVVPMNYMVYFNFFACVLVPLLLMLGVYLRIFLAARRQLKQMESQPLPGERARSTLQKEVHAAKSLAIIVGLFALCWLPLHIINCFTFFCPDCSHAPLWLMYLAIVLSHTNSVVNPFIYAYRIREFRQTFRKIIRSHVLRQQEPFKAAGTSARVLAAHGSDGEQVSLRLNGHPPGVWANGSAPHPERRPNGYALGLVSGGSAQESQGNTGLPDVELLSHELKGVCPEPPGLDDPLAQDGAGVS

Row | SMILES | IC50 [1, 3] [nM] | IC50 [1, 4] [nM] | efflux ratio at 120 min, 2 μM [2] | IC50 [1, 5] [nM]
1 | CN(C)CCNC(=O)COc1ccc(N2CCN(CCn3c(=O)sc4c3nc(N)n3nc(-c5ccco5)nc43)CC2)c(F)c1 [Compound 51, 2-(4-(4-(2-(5-amino-8-(furan-2-yl)-2-oxothiazolo[5,4-e][1,2,4]triazolo[1,5-c]pyrimidin-3(2H)-yl)ethyl)piperazin-1-yl)-3-fluorophenoxy)-N-(2-(dimethylamino)ethyl)acetamide] | 0.3 | 16 | 469 | 
2 | NCCNC(=O)COc1ccc(N2CCN(CCn3c(=O)sc4c3nc(N)n3nc(-c5ccco5)nc43)CC2)c(F)c1 [Compound 52, 2-(4-(4-(2-(5-amino-8-(furan-2-yl)-2-oxothiazolo[5,4-e][1,2,4]triazolo[1,5-c]pyrimidin-3(2H)-yl)ethyl)piperazin-1-yl)-3-fluorophenoxy)-N-(2-aminoethyl)acetamide] | 0.3 | 26 | 34 | 1
3 | NC(=O)COc1ccc(N2CCN(CCn3c(=O)sc4c3nc(N)n3nc(-c5ccco5)nc43)CC2)c(F)c1 [Compound 54, 2-(4-(4-(2-(5-amino-8-(furan-2-yl)-2-oxothiazolo[5,4-e][1,2,4]triazolo[1,5-c]pyrimidin-3(2H)-yl)ethyl)piperazin-1-yl)-3-fluorophenoxy)acetamide] | 0.8 | 138 | 24 | 3
4 | CNCCN(C)C(=O)c1ccc(N2CCN(CCn3c(=O)sc4c3nc(N)n3nc(-c5ccco5)nc43)CC2)c(F)c1 [Compound 55, 4-(4-(2-(5-amino-8-(furan-2-yl)-2-oxothiazolo[5,4-e][1,2,4]triazolo[1,5-c]pyrimidin-3(2H)-yl)ethyl)piperazin-1-yl)-3-fluoro-N-methyl-N-(2-(methylamino)ethyl)benzamide] | 1 | 141 | 205 | 2
5 | CN(C)CCN(C)C(=O)c1ccc(N2CCN(CCn3c(=O)sc4c3nc(N)n3nc(-c5ccco5)nc43)CC2)c(F)c1 [Compound 56, 4-(4-(2-(5-amino-8-(furan-2-yl)-2-oxothiazolo[5,4-e][1,2,4]triazolo[1,5-c]pyrimidin-3(2H)-yl)ethyl)piperazin-1-yl)-N-(2-(dimethylamino)ethyl)-3-fluoro-N-methylbenzamide] | 0.2 | 25 | 1750 | 1
6 | C[C@H](CN(C)C)NC(=O)c1ccc(N2CCN(CCn3c(=O)sc4c3nc(N)n3nc(-c5ccco5)nc43)CC2)c(F)c1 [Compound 57, (R)-4-(4-(2-(5-amino-8-(furan-2-yl)-2-oxothiazolo[5,4-e][1,2,4]triazolo[1,5-c]pyrimidin-3(2H)-yl)ethyl)piperazin-1-yl)-N-(1-(dimethylamino)propan-2-yl)-3-fluorobenzamide] | 0.2 | 56 | 2200 | 2
7 | CNCCNC(=O)COc1cc(N2CCN(CCn3c(=O)sc4c3nc(N)n3nc(-c5ccco5)nc43)CC2)c(F)cc1F [Compound 62, 2-(5-(4-(2-(5-amino-8-(furan-2-yl)-2-oxothiazolo[5,4-e][1,2,4]triazolo[1,5-c]pyrimidin-3(2H)-yl)ethyl)piperazin-1-yl)-2,4-difluorophenoxy)-N-(2-(methylamino)ethyl)acetamide] | 0.5 | 21 | 23 | 1
8 | CN(C)CCNC(=O)COc1cc(N2CCN(CCn3c(=O)sc4c3nc(N)n3nc(-c5ccco5)nc43)CC2)c(F)cc1F [Compound 63, 2-(5-(4-(2-(5-amino-8-(furan-2-yl)-2-oxothiazolo[5,4-e][1,2,4]triazolo[1,5-c]pyrimidin-3(2H)-yl)ethyl)piperazin-1-yl)-2,4-difluorophenoxy)-N-(2-(dimethylamino)ethyl)acetamide] | 0.3 | 12 | 264 | 1
9 | CN(C)CCN(C)C(=O)c1cc(N2CCN(CCn3c(=O)sc4c3nc(N)n3nc(-c5ccco5)nc43)CC2)c(F)cc1F [Compound 64, 5-(4-(2-(5-amino-8-(furan-2-yl)-2-oxothiazolo[5,4-e][1,2,4]triazolo[1,5-c]pyrimidin-3(2H)-yl)ethyl)piperazin-1-yl)-N-(2-(dimethylamino)ethyl)-2,4-difluoro-N-methylbenzamide] | 0.6 | 36 | 60 | 1
10 | Nc1nc2c(sc(=O)n2CCN2CCN(c3cc(OCc4nnn[nH]4)c(F)cc3F)CC2)c2nc(-c3ccco3)nn12 [Compound 66, 3-(2-(4-(5-((1H-tetrazol-5-yl)methoxy)-2,4-difluorophenyl)piperazin-1-yl)ethyl)-5-amino-8-(furan-2-yl)thiazolo[5,4-e][1,2,4]triazolo[1,5-c]pyrimidin-2(3H)-one] | 0.8 | 543 | 1010 | 13
11 | Cn1cnc(COc2ccc(N3CCN(CCn4c(=O)sc5c4nc(N)n4nc(-c6ccco6)nc54)CC3)c(F)c2)n1 [Compound 67, 5-amino-3-(2-(4-(2-fluoro-4-((1-methyl-1H-1,2,4-triazol-3-yl)methoxy)phenyl)piperazin-1-yl)ethyl)-8-(furan-2-yl)thiazolo[5,4-e][1,2,4]triazolo[1,5-c]pyrimidin-2(3H)-one] | 0.6 | 378 | 15 | 9
12 | Cn1cnc(COc2cc(N3CCN(CCn4c(=O)sc5c4nc(N)n4nc(-c6ccco6)nc54)CC3)c(F)cc2F)n1 [Compound 68, 5-amino-3-(2-(4-(2,4-difluoro-5-((1-methyl-1H-1,2,4-triazol-3-yl)methoxy)phenyl)piperazin-1-yl)ethyl)-8-(furan-2-yl)thiazolo[5,4-e][1,2,4]triazolo[1,5-c]pyrimidin-2(3H)-one] | 14 | 2700 | 108 | 123
13 | CN(CCNC(=O)c1ccc(N2CCN(CCn3c(=O)sc4c3nc(N)n3nc(-c5ccco5)nc43)CC2)c(F)c1)C1COC1 [Compound 69, 4-(4-(2-(5-amino-8-(furan-2-yl)-2-oxothiazolo[5,4-e][1,2,4]triazolo[1,5-c]pyrimidin-3(2H)-yl)ethyl)piperazin-1-yl)-3-fluoro-N-(2-(methyl(oxetan-3-yl)amino)ethyl)benzamide] | 0.5 | 211 | 201 | 5
14 | Nc1nc2c(sc(=O)n2CCN2CCN(c3ccc(C(=O)NCCNCCO)cc3F)CC2)c2nc(-c3ccco3)nn12 [Compound 70, 4-(4-(2-(5-amino-8-(furan-2-yl)-2-oxothiazolo[5,4-e][1,2,4]triazolo[1,5-c]pyrimidin-3(2H)-yl)ethyl)piperazin-1-yl)-3-fluoro-N-(2-((2-hydroxyethyl)amino)ethyl)benzamide] | 0.6 | 124 | 53 | 3
15 | NCC(=O)NCCOc1ccc(N2CCN(CCn3c(=O)sc4c3nc(N)n3nc(-c5ccco5)nc43)CC2)c(F)c1 [Compound 71, 2-amino-N-(2-(4-(4-(2-(5-amino-8-(furan-2-yl)-2-oxothiazolo[5,4-e][1,2,4]triazolo[1,5-c]pyrimidin-3(2H)-yl)ethyl)piperazin-1-yl)-3-fluorophenoxy)ethyl)acetamide] | 0.4 | 79 | 28 | 3
16 | CC(C)[C@H](N)C(=O)NCCOc1ccc(N2CCN(CCn3c(=O)sc4c3nc(N)n3nc(-c5ccco5)nc43)CC2)c(F)c1 [Compound 72, (S)-2-amino-N-(2-(4-(4-(2-(5-amino-8-(furan-2-yl)-2-oxothiazolo[5,4-e][1,2,4]triazolo[1,5-c]pyrimidin-3(2H)-yl)ethyl)piperazin-1-yl)-3-fluorophenoxy)ethyl)-3-methylbutanamide] | 1 | 86 | 21 | 3
17 | N#CCOc1cc(N2CCN(CCn3c(=O)sc4c3nc(N)n3nc(-c5ccco5)nc43)CC2)c(F)cc1F [Compound 74, 2-(5-(4-(2-(5-amino-8-(furan-2-yl)-2-oxothiazolo[5,4-e][1,2,4]triazolo[1,5-c]pyrimidin-3(2H)-yl)ethyl)piperazin-1-yl)-2,4-difluorophenoxy)acetonitrile] | 1.2 | 495 | 4 | 20
18 | CS(=O)(=O)CCOc1cc(N2CCN(CCn3c(=O)sc4c3nc(N)n3nc(-c5ccco5)nc43)CC2)c(F)cc1F [Compound 77, 5-amino-3-(2-(4-(2,4-difluoro-5-(2-(methylsulfonyl)ethoxy)phenyl)piperazin-1-yl)ethyl)-8-(furan-2-yl)thiazolo[5,4-e][1,2,4]triazolo[1,5-c]pyrimidin-2(3H)-one] | 0.5 | 158 | 43 | 3
19 | CS(=O)(=O)CCOc1ccc(N2CCN(CCn3c(=O)sc4c3nc(N)n3nc(-c5ccco5)nc43)CC2)c(F)c1 [Compound 78, 5-amino-3-(2-(4-(2-fluoro-4-(2-(methylsulfonyl)ethoxy)phenyl)piperazin-1-yl)ethyl)-8-(furan-2-yl)thiazolo[5,4-e][1,2,4]triazolo[1,5-c]pyrimidin-2(3H)-one] | 0.6 | 130 | 45 | 
20 | Nc1nc2c(sc(=O)n2CCN2CCN(c3cc4c(cc3F)NC(=O)C4)CC2)c2nc(-c3ccco3)nn12 [Compound 79, 5-amino-3-(2-(4-(6-fluoro-2-oxoindolin-5-yl)piperazin-1-yl)ethyl)-8-(furan-2-yl)thiazolo[5,4-e][1,2,4]triazolo[1,5-c]pyrimidin-2(3H)-one] | 0.3 | 77 | 47 | 
